Molecules are shown by their SMILES.

Experiment [1] has as its system LacI lactose operon repressor (SEQ ID NO 11), LacI-T7 system (Phy-spank-T7 RNAP / PT7lac, sfgfp reporter). Put plainly: IPTG dose response of the LacI-T7 inducible promoter system (steady state transfer function, sfGFP fluorescence by flow cytometry). Particulars: Hill function fit. Format: cell-based, B. subtilis PY79. The text has this:
(§1) FIG. 1E sfGFP Fluorescence from LacI-T7 and Phy-spank as a function of IPTG concentration.
Next, we measured the steady state transfer function of both systems by growing the corresponding strains under different concentrations of IPTG. In both cases, sfGFP fluorescence increases as a function of IPTG concentration in a manner well-approximated by a Hill function (FIG. 1E).
For each experiment, an overnight LB culture was started from the freezer stock of each relevant strain. The next day, saturated cultures (OD600˜3) were diluted 10^5-fold in M9. […]
(§2) The sfGFP fluorescence distribution of each culture was measured using a BD FACScan flow cytometer with an excitation source of 488 nm and an emission window of 510/21 nm. […] A suspension of calibration beads (Spherotech® RCP-30-5A) in PBS was measured with each experiment. […]
Cell populations were gated by forward scatter/side scatter density (not shown) retaining 50% of the total number of events. Next, fluorescence of each gated event in arbitrary units was converted into standardized MEFL values using the calibration bead data. The total cellular fluorescence of each culture sample was then obtained by calculating the median MEFL fluorescence of all gated events in that sample. […] Numerical sfGFP fluorescence values of every sample and replicate can be found in Table 1.
(In flow cytometry, cells or beads pass a laser one at a time.)

For experiment [2], the system named is LacI lactose operon repressor (SEQ ID NO 11), Phy-spank system (sfgfp reporter). Put plainly: IPTG dose response of the Phy-spank inducible promoter system (steady state transfer function, sfGFP fluorescence by flow cytometry). It counts as cell-based, B. subtilis PY79. To be noted: Hill function fit.
Text: as §1
Phy-spank is a variant of the IPTG-inducible promoter Pspac optimized for higher expression and dynamic range, and is perhaps the most widely used B. subtilis inducible promoter system. We constructed a second B. subtilis strain wherein sfgfp* was expressed under the control of Phy-spank, RiboJ, and RBS MF001 to compare its performance to that of LacI-T7.
Next, we measured the steady state transfer function of both systems by growing the corresponding strains under different concentrations of IPTG. In both cases, sfGFP fluorescence increases as a function of IPTG concentration in a manner well-approximated by a Hill function (FIG. 1E). […]
as §2
Cell populations were gated by forward scatter/side scatter density (not shown) retaining 50% of the total number of events. Next, fluorescence of each gated event in arbitrary units was converted into standardized MEFL values using the calibration bead data. […] Numerical sfGFP fluorescence values of every sample and replicate can be found in Table 1.

The mark [3] stands for this setting: Bacillus subtilis, IPTG detection threshold, sfGFP fluorescence, read-out: 50% activation concentration.
Where [4] appears, read: sfGFP fluorescence as a function of IPTG concentration.

As a reminder, the Hill coefficient is the slope factor of the fitted curve. On to `CC(C)S[C@@H]1O[C@H](CO)[C@H](O)[C@H](O)[C@H]1O` [IPTG, Isopropyl β-D-1-thiogalactopyranoside], for which the EC50 in experiment [1] (setting [3]) worked out at 54.1 ± 1.6 µM; in experiment [2] (setting [3]) it was 50.2 ± 1.5 µM. Moreover, the Hill coefficient is given as 3.377±0.051 in experiment [1] (setting [4]) and 2.120±0.033 in experiment [2] (setting [4]).

Values taken from patent US12460215B2, “Bacillus expression system” (WILLIAM MARSH RICE UNIVERSITY, priority 2018, dated 2025).
